# Experimental data published in ChEMBL document CHEMBL5113408, “Design, synthesis and antitumour activity of novel 5(6)-amino-benzimidazolequinones containing a fused morpholine” (Eur J Med Chem, 2022).
# Legend:
# Format in all cases: functional, cell-based
# ECa-109 cell line = assay: Antiproliferative activity against human EC109 cells assessed as inhibition of cell growth by SRB assay
# MGC-803 = assay: Antiproliferative activity against human MGC-803 cells assessed as inhibition of cell growth by SRB assay
# HeLa = assay: Antiproliferative activity against human HeLa cells assessed as inhibition of cell growth by SRB assay
# MCF7 = assay: Antiproliferative activity against human MCF7 cells assessed as inhibition of cell growth by SRB assay
IC50 (MGC-803) [µM],IC50 (HeLa) [µM],IC50 (MCF7) [µM],SMILES,IC50 (ECa-109 cell line) [µM]
1.86,8.92,> 4,O=C1C(Nc2ccc(C(F)(F)F)cc2)=CC(=O)c2c1nc1n2[C@H]2OC[C@@H](O)[C@H]2OC1,2.25
2.02,5.22,4.33,O=C1C(Nc2ccc(Br)cc2)=CC(=O)c2c1nc1n2[C@H]2OC[C@@H](O)[C@H]2OC1,1.98
4.63,6.17,9.44,CCCc1ccc(NC2=CC(=O)c3c(nc4n3C[C@@H]([C@H](O)CO)OC4)C2=O)cc1,5.12
5.27,4.06,9.4,O=C1C=C(Nc2cccc(Cl)c2)C(=O)c2c1nc1n2C[C@@H]([C@H](O)CO)OC1,11.3
1.68,4.78,5.42,COc1ccc(NC2=CC(=O)c3nc4n(c3C2=O)[C@H]2OC[C@@H](O)[C@H]2OC4)cc1,> 4
1.4,4.07,2.23,O=C1C=C(Nc2ccc(I)cc2)C(=O)c2c1nc1n2[C@H]2OC[C@@H](O)[C@H]2OC1,2.3
> 16,> 16,> 16,O=C1C=C(N2CCCC2)C(=O)c2c1nc1n2[C@H]2OC[C@@H](O)[C@H]2OC1,> 16
3.49,11,> 8,O=C1C(NCc2ccccc2)=CC(=O)c2c1nc1n2[C@H]2OC[C@@H](O)[C@H]2OC1,> 8
> 16,> 16,> 16,CN(C)C1=CC(=O)c2c(nc3n2[C@H]2OC[C@@H](O)[C@H]2OC3)C1=O,

# Further lines, the molecule ahead of its results:
SMILES,IC50 (MGC-803) [µM],IC50 (HeLa) [µM],IC50 (MCF7) [µM],IC50 (ECa-109 cell line) [µM]
O=C1C=C(Nc2ccc(C(F)(F)F)cc2)C(=O)c2c1nc1n2[C@H]2OC[C@@H](O)[C@H]2OC1,2.82,> 8,> 4,5.5
O=C1C=C(Nc2ccccc2F)C(=O)c2c1nc1n2[C@H]2OC[C@@H](O)[C@H]2OC1,2.08,5.12,3.64,2.76
O=C1C=C(Nc2ccccc2F)C(=O)c2c1nc1n2C[C@@H]([C@H](O)CO)OC1,3.24,5.86,9.17,7.88
CCOc1ccc(NC2=CC(=O)c3nc4n(c3C2=O)[C@H]2OC[C@@H](O)[C@H]2OC4)cc1,1.11,3.11,1.43,3.21
O=C1C(Nc2cccc(F)c2)=CC(=O)c2c1nc1n2[C@H]2OC[C@@H](O)[C@H]2OC1,1.47,> 8,> 4,2.37
O=C1C(NC2CC2)=CC(=O)c2c1nc1n2C[C@@H]([C@H](O)CO)OC1,> 16,> 16,> 16,> 16
COc1ccc(NC2=CC(=O)c3c(nc4n3C[C@@H]([C@H](O)CO)OC4)C2=O)cc1,6.76,8.19,11.4,10.8
O=C1C(Nc2ccccc2F)=CC(=O)c2c1nc1n2C[C@@H]([C@H](O)CO)OC1,3.74,> 16,5.15,5.51
COc1ccc(NC2=CC(=O)c3c(nc4n3[C@H]3OC[C@@H](O)[C@H]3OC4)C2=O)cc1,2.15,> 8,4.47,3.41
COc1ccccc1NC1=CC(=O)c2nc3n(c2C1=O)[C@H]1OC[C@@H](O)[C@H]1OC3,1.63,2.95,> 4,> 4
Cc1ccc(NC2=CC(=O)c3c(nc4n3[C@H]3OC[C@@H](O)[C@H]3OC4)C2=O)cc1C,1.05,4.32,4.95,4.09
CCc1ccc(NC2=CC(=O)c3c(nc4n3C[C@@H]([C@H](O)CO)OC4)C2=O)cc1,3.69,4.59,6.57,4.54
O=C1C=C(Nc2ccccc2)C(=O)c2c1nc1n2C[C@@H]([C@H](O)CO)OC1,8.07,6.06,> 16,> 16
O=C1C(Nc2ccc(I)cc2)=CC(=O)c2c1nc1n2C[C@@H]([C@H](O)CO)OC1,2.46,5.51,5.11,3.14
O=C1C(Nc2ccc(Br)cc2)=CC(=O)c2c1nc1n2C[C@@H]([C@H](O)CO)OC1,2.78,7.89,5.01,3.56
O=C1C=C(N2CCCCC2)C(=O)c2c1nc1n2[C@H]2OC[C@@H](O)[C@H]2OC1,> 8,> 16,> 8,> 8
O=C1C(N2CCOCC2)=CC(=O)c2c1nc1n2[C@H]2OC[C@@H](O)[C@H]2OC1,> 4,> 16,> 16,
